# From patent US8436003B2, “Substituted imidazo- and triazolopyrimidines, imidazo- and pyrazolopyrazines and imidazotriazines” (Bayer Intellectual Property GmbH, priority 2008, dated 2013)
# Target: T1, GSK3β (Homo sapiens, UniProt P49841)
# T1 construct: purchased Upstate 14-306
# Experiment: In vitro biochemical GSK3β inhibition assay (coupled pyruvate kinase/lactate dehydrogenase, NADH fluorescence)
# Conditions: 5 nM GSK3β, 40 μM GSK3β substrate GSM, 50 μM ATP, 30° C. for 2 hours
# Method: The inhibitory activity of active substances is determined in a biochemical assay. The ingredients required for this purpose are mixed in a black 384-well microtitre plate with transparent base (from Greiner, catalogue number 781092). The requirements in this connection for each well of the 384-well microtitre plate are 5 nM GSK3β (from Upstate, catalogue number 14-306), 40 μM GSK3β substrate GSM (sequence H-RRRPASVPPSPSLSRHS-(pS)-HQRR, from Upstate, catalogue number 2-533), 30 μM nicotinamide adenine dinucleotide NADH (Roche Diagnostics, catalogue number 10107735), 50 μM adenosine triphosphate ATP (from Sigma, catalogue number A7966), 2 mM phosphoenolpyruvate (from Roche, catalogue number 128112), and also about 1 U/ml of pyruvate kinase and about 1 U/ml of lactate dehydrogenase, which are present together in a stock formulation (from Roche, catalogue number 10737291001, suspension with about 450 U/ml of pyruvate kinase activity, about 450 U/ml of lactate dehydrogenase activity in […] ammonium sulphate solution pH 6), where 1 unit pyruvate kinase converts, at pH 7.6 and 37° C., 1 μmol of phosphoenolpyruvate into pyruvate per minute, and where 1 unit of lactate dehydrogenase reduces, at pH 7.5 and 37° C., 1 μmol of pyruvate to lactate per minute. The required reaction buffer in which the biochemical reaction takes place consists of 50 mM Trizma hydrochloride Tris-HCl pH: 7.5 (from Sigma, catalogue number T3253), 5 mM magnesium chloride MgCl2 (from Sigma, catalogue number M8266), 0.2 mM DL-dithiothreitol DTT (from Sigma, catalogue number D9779), 2 mM ethylenediaminetetraacetic acid EDTA (from Sigma, catalogue number E6758), 0.01% Triton X-100 (from Sigma, catalogue number T8787) and 0.05% bovine serum albumin BSA (from Sigma, catalogue number B4287).
# Active substances are dissolved in dimethyl sulfoxide DMSO (from Sigma, catalog number D8418) in a concentration of 10 mM. Active substances are added in serial concentrations of 10 μM, 1 μM, 0.1 μM, 0.01 μM, 0.001 μM, 0.0001 μM, 0.00001 μM, 0.000001 μM to the mixtures of the biochemical reaction. As control, dimethyl sulfoxide is added instead of substance in a final concentration of 0.1%.
# The reaction is incubated at 30° C. for 2 hours and then the resulting fluorescence is measured in a Tecan Safire-XFLUOR4 instrument, version V4.50 (serial number 12901300283) with the specifications: measurement mode—fluorescence measured from below, extinction wavelength 340 nm, emission wavelength 465 nm, slit width extinction 5 nm, slit width emission 5 nm, gain mode 120, delay 0 μs, number of light flashes per measurement 3, and an integration time of 40 μs.
# The activity of the active substances is calculated in relation to these 0% and 100%.
# T1 sequence (P49841 whole entry): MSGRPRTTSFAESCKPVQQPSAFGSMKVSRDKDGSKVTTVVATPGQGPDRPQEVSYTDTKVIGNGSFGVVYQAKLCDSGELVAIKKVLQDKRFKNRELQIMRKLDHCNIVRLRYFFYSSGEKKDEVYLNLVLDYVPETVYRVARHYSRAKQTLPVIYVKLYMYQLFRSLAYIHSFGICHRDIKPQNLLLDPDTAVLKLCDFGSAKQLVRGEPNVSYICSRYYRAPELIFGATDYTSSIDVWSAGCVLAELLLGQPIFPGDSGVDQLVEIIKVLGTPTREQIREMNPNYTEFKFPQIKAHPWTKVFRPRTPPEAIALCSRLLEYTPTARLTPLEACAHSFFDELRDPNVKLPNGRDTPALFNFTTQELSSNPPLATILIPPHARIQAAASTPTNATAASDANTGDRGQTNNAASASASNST
row,IC50,Compound
1,9 nM,"Nc1nc(NCCNc2nc(-c3ccc(Cl)cc3Cl)cc3nc(C4CCN(CC(=O)O)CC4)nn23)ccc1C(=O)C(F)(F)F [Example 23, (4-{5-[(2-{[6-Amino-5-(trifluoroacetyl)pyridin-2-yl]amino}ethyl)amino]-7-(2,4-dichlorophenyl)-[1,2,4]triazolo[1,5-c]pyrimidin-2-yl}piperidin-1-yl)acetic acid]"
2,2 nM,"CC(C)N1CCC(c2nc3cc(-c4ccc(F)cc4Cl)nc(N4CCCC(Nc5ccc(C(=O)C(F)(F)F)c(N)n5)C4)n3n2)CC1 (racemic) [Example Ent-A-13, 1-{2-Amino-6-[(1-{7-(2-chloro-4-fluorophenyl)-2-[1-(propan-2-yl)piperidin-4-yl][1,2,4]-triazolo[1,5-c]pyrimidin-5-yl}piperidin-3-yl)amino]pyridin-3-yl}-2,2,2-trifluoroethanone]"
3,15 nM,"CC(C)N1CCC(c2nc3cc(-c4ccc(Cl)cc4Cl)nc(NCCNc4ccc(C(=O)C(F)(F)F)c(N)n4)n3n2)CC1 [Example 1, 1-(2-Amino-6-{[2-({7-(2,4-dichlorophenyl)-2-[1-(propan-2-yl)piperidin-4-yl][1,2,4]triazolo[1,5-c]-pyrimidin-5-yl}amino)ethyl]amino}pyridin-3-yl)-2,2,2-trifluoroethanone]"
4,4 nM,"CC(C)N1CCC(c2nc3cc(-c4ccc(F)cc4Cl)nc(N4CCCC(Nc5ccc(C(=O)C(F)(F)F)c(N)n5)C4)n3n2)CC1 (racemic) [Example 13, 1-{2-Amino-6-[(1-{7-(2-chloro-4-fluorophenyl)-2-[1-(propan-2-yl)piperidin-4-yl][1,2,4]-triazolo[1,5-c]pyrimidin-5-yl}piperidin-3-yl)amino]pyridin-3-yl}-2,2,2-trifluoroethanone]"
5,10 nM,"CC(C)N1CCC(c2nc3cc(-c4ccc(Cl)cc4Cl)nc(N4CCCC(Nc5ccc(C(=O)C(F)(F)F)c(N)n5)C4)n3n2)CC1 (stereo not drawn) [Example 5, 1-{2-Amino-6-[(1-{7-(2,4-dichlorophenyl)-2-[1-(propan-2-yl)piperidin-4-yl][1,2,4]triazolo[1,5-c]-pyrimidin-5-yl}piperidin-3-yl)amino]pyridin-3-yl}-2,2,2-trifluoroethanone]"
6,20 nM,"Nc1nc(NCCNc2nc(-c3ccc(Cl)cc3Cl)cc3nc(C4CCN(CC5CC5)CC4)nn23)ccc1C(=O)C(F)(F)F [Example 21, 1-(2-Amino-6-{[2-({2-[1-(cyclopropylmethyl)piperidin-4-yl]-7-(2,4-dichlorophenyl)-[1,2,4]triazolo[1,5-c]pyrimidin-5-yl}amino)ethyl]amino}pyridin-3-yl)-2,2,2-trifluoroethanone]"
